US10940188B2, “Compounds and methods for treatment and prevention of Flavivirus infection” (priority 2016, dated 2021)
Counter-ions that a name gives are not always drawn. Like-named read-outs stand apart in the source and are kept apart here. Numbered stars: 1 amine (or outer) side, 2 acyl side, 3 side chain; on linkers, the order of the positions; unused ones are H or OH. Bridge positions count the residues as written; N and C are the ends. Square brackets hold non-standard residues; d marks the D form. Peptide text beside a SMILES is read from it. I, II: the chains in the order shown. Actinocin(9to1) = Cc1c2oc3c(C)ccc(C(=O)[*:1])c3nc-2c(C(=O)[*:2])c(N)c1=O; NMeV = CN[C@H](C(=O)O)C(C)C; Sar = CNCC(=O)O

Key:
HEK293 cells = test: Toxicity IC50 (cell-killing activity) of the NS1 TR-FRET screen; type: cell-based, human
ZIKV MR766 NS1 = test: microbe, parasite or virus in culture; type: cell-based, Zika virus; details: read-out: NS1-IC50
Procedure: A one-step NS1 TR-FRET (Time-resolved fluorescence resonance energy transfer) assay for a screen of anti-ZIKV compounds was carried out. Human embryonic kidney cell line HEK293 cells were seeded into 384-well plates and infected with ZIKV MR766 at a MOI of 0.5 for 2 days. The FRET assay was performed with two clones of anti-NS1 antibody (ab) differentially labelled with donor and acceptor fluorophores.

[1] = cell-killing activity, read-out: Tox IC50
[2] = HEK293 cells, ZIKV MR766, MOI 0.5, 2 days, virus-inhibiting activity
[3] = Homo sapiens, HEK293, cell-killing activity, read-out: Tox IC50

SMILES | IC50 (ZIKV MR766 NS1; Zika virus, HEK293, 48 h) [nM] | IC50 (ZIKV MR766 NS1; [2]) [nM] | Tox IC50 (HEK293 cells; cell-killing activity) | other results
CC[C@H](CC#N)OC(=O)N[C@@H](C)c1cccc(NC(=O)Nc2ccc(-c3cnco3)c(OC)c2)c1 [AVN-944] | 136 | – | – | IC50 (HEK293 cells; Homo sapiens, HEK293, read-out: Tox IC50): 20000 nM
OCCCNc1cc(-c2ccnc(Nc3cccc(Cl)c3)n2)ccn1 [CGP-60474] | – | 794 | – | IC50 (HEK293 cells; [1]): 60000 nM
COc1c(C)c2c(c(O)c1C/C=C(\C)CCC(=O)OCCN1CCOCC1)C(=O)OC2 [Mycophenolate mofetil] | 529 | – | No | –
CC(C)[C@]12O[C@H]1[C@@H]1O[C@]13[C@]1(O[C@H]1C[C@H]1C4=C(CC[C@@]13C)C(=O)OC4)[C@@H]2O [Triptolide] | 465 | – | No | –
CS[C@H]1SC[C@H]2C(=O)N(C)[C@@H](C(C)C)C(=O)OC[C@@H](NC(=O)c3cnc4ccccc4n3)C(=O)N[C@@H](C)C(=O)N(C)[C@@H]1C(=O)N(C)[C@@H](C(C)C)C(=O)OC[C@@H](NC(=O)c1cnc3ccccc3n1)C(=O)N[C@@H](C)C(=O)N2C [Echinomycin] | 17.4 | – | No | –
NC(=O)Nc1cc(-c2cccc(F)c2)sc1C(=O)N[C@H]1CCCNC1 [AZD-7762] | 366 | – | No | –
CC[C@@]1(O)C(=O)OCc2c1cc1n(c2=O)Cc2cc3cc(O)ccc3nc2-1 [10-hydroxycamptothecin] | – | 46.6 | No | –
CC(=O)O[C@H]1C(=O)[C@@]2(C)[C@H]([C@H](OC(=O)c3ccccc3)[C@]3(O)C[C@H](OC(=O)[C@H](O)[C@@H](NC(=O)c4ccccc4)c4ccccc4)C(C)=C1C3(C)C)[C@]1(OC(C)=O)CO[C@@H]1C[C@@H]2O [PACLITAXEL] | 89.4 | – | No | –
C[C@H]1CCC/C=C/[C@@H]2C[C@H](O)C[C@H]2[C@H](O)/C=C/C(=O)O1 [Cyanein] | – | 432 | No | –
CC(C)C[C@H](NC(=O)[C@@H](NC(=O)c1cccc(-c2ccccc2)n1)[C@@H](C)O)B(O)O [Delanzomib] | 58.5 | – | – | IC50 (HEK293 cells; [3]): 300 nM
CC(C)C[C@H](NC(=O)CNC(=O)c1cc(Cl)ccc1Cl)B(O)O [MLN-2238] | 234 | – | – | IC50 (HEK293 cells; [3]): 2130 nM
CCc1c2c(nc3ccc(O)cc13)-c1cc3c(c(=O)n1C2)COC(=O)[C@]3(O)CC [SN-38] | – | 11.3 | No | –
COC(=O)[C@]12CCC(C)(C)C[C@H]1[C@H]1C(=O)C=C3[C@@]4(C)C=C(C#N)C(=O)C(C)(C)[C@@H]4CC[C@@]3(C)[C@]1(C)CC2 [Bardoxolone methyl] | 282 | – | – | IC50 (HEK293 cells; [3]): 2680 nM
O=C1c2c(O)ccc(O)c2C(=O)c2c(NCCNCCO)ccc(NCCNCCO)c21 [Mitoxantrone] | 232 | – | – | IC50 (HEK293 cells; [3]): 50000 nM
Cc1ccc([N+](=O)[O-])cc1S(=O)(=O)N(C)/N=C/c1cnc2ccc(Br)cn12 [PIK-75] | – | 616 | No | –
CC(C)C[C@H](NC(=O)CNC(=O)c1cc(Cl)ccc1Cl)B1OC(=O)C(CC(=O)O)(CC(=O)O)O1 [Ixazomib citrate] | 196 | – | – | IC50 (HEK293 cells; [3]): 1580 nM
CC[C@]1(O)C[C@H]2CN(CCc3c([nH]c4ccccc34)[C@@](C(=O)OC)(c3cc4c(cc3OC)N(C=O)[C@H]3[C@@](O)(C(=O)OC)[C@H](OC(C)=O)[C@]5(CC)C=CCN6CC[C@]43[C@@H]65)C2)C1 [Vincristine sulfate] | 156 | – | No | –
C[C@]1(CO)CN(c2cc(C(=O)Nc3ccc4c(c3)-c3c(c(C(N)=O)nn3-c3ccc(F)cc3)CC4)c(Cl)cn2)C[C@@]1(C)CO [PF-184] | – | 388 | No | –
CC(=O)[C@]1(O)Cc2c(O)c3c(c(O)c2[C@@H](O[C@H]2C[C@H](N)[C@H](O)[C@H](C)O2)C1)C(=O)c1ccccc1C3=O [Idarubicin hydrochloride] | 168 | – | No | –
C/C=C(\C)C(=O)N[C@@H](c1ccccc1)[C@@H](O)C(=O)O[C@H]1C[C@@]2(O)[C@@H](OC(=O)c3ccccc3)[C@@H]3[C@]4(OC(C)=O)CO[C@@H]4C[C@H](O)[C@@]3(C)C(=O)[C@H](OC(C)=O)C(=C1C)C2(C)C [Cephalomannine] | 221 | – | No | –

SMILES | IC50 (ZIKV MR766 NS1; Zika virus, HEK293, 48 h) [nM] | IC50 (ZIKV MR766 NS1; [2]) [nM] | Tox IC50 (HEK293 cells; cell-killing activity) | other results
CN[C@@H]1C[C@H]2O[C@@](C)([C@@H]1OC)n1c3ccccc3c3c4c(c5c6ccccc6n2c5c31)C(=O)N[C@H]4O [7-Hydroxystaurosporine] | – | 760 | – | IC50 (HEK293 cells; [1]): 102000 nM
CC(C)c1nn(-c2c(Cl)cccc2Cl)c2nc(Cc3ccc(OCCO)cc3)[nH]c(=O)c12 [RGB-286147] | – | 268 | No | –
CC[C@@]1(O)C(=O)OCc2c1cc1n(c2=O)Cc2cc3ccccc3nc2-1 [(S)-(+)-Camptothecin] | – | 26.4 | No | –
O=C(Cc1ccc(-c2ccc(OCCN3CCOCC3)cc2)cn1)NCc1ccccc1 [KX-01] | – | 481 | – | IC50 (HEK293 cells; [1]): 19300 nM
CC[C@@H]1C(=O)N(C)c2cnc(Nc3ccc(C(=O)N[C@H]4CC[C@H](N5CCN(CC6CC6)CC5)CC4)cc3OC)nc2N1C(C)C [Volasertib] | 64.8 | – | No | –
NCC(=O)Nc1ccc(-n2nc(C(F)(F)F)cc2-c2ccc3c(ccc4ccccc43)c2)cc1 [OSU-03012] | 992 | – | – | IC50 (HEK293 cells; [3]): 10000 nM
CCC[C@H](Nc1nc(-c2ccc(NC(=O)NCC)c(OC)c2)ncc1C)c1cccnc1 [Lexibulin hydrochloride] | 171 | – | No | –
Nc1ccc(-c2ccc3ncc4ccc(=O)n(-c5cccc(C(F)(F)F)c5)c4c3c2)cn1 [Torin-2] | – | 724 | No | –
Cn1c2ccccc2c2c3c(c4c5ccccc5n(CCC#N)c4c21)CNC3=O [Go-6976] | 944 | – | – | IC50 (HEK293 cells; [3]): 20200 nM
C[C@@H]1C[C@@H]([C@H](O)CC2CC(=O)NC(=O)C2)C(=O)[C@@H](C)C1 [Cycloheximide] | 287 | – | No | –
CC[C@]1(O)C[C@@H]2CN(CCc3c([nH]c4ccccc34)[C@@](C(=O)OC)(c3cc4c(cc3OC)N(C)[C@H]3[C@@](O)(C(N)=O)[C@H](O)[C@]5(CC)C=CCN6CC[C@]43[C@@H]65)C2)C1 [Vindesine sulfate salt] | 664 | – | No | –
Cc1ccc(C(=O)N(CCCN)[C@@H](c2nc3cc(Cl)ccc3c(=O)n2Cc2ccccc2)C(C)C)cc1 [Ispinesib] | 67.4 | – | – | IC50 (HEK293 cells; [3]): 37500 nM
CCC1=C[C@@H]2CN(C1)Cc1c([nH]c3ccccc13)[C@@](C(=O)OC)(c1cc3c(cc1OC)N(C)[C@H]1[C@@](O)(C(=O)OC)[C@H](OC(C)=O)[C@]4(CC)C=CCN5CC[C@]31[C@@H]54)C2 [Vinorelbine tartrate] | 270 | – | No | –
Cn1cc(-c2[nH]c3cc(NC(=O)[C@H](N)C4CCCCC4)cc4c3c2C=NNC4=O)cn1 [PF-477736] | – | 489 | No | –
Cc1c2oc3c(C)ccc(C(=O)N[C@@H]4C(=O)N[C@H](C(C)C)C(=O)N5CCC[C@H]5C(=O)N(C)CC(=O)N(C)[C@@H](C(C)C)C(=O)O[C@@H]4C)c3nc-2c(C(=O)N[C@@H]2C(=O)N[C@H](C(C)C)C(=O)N3CCC[C@H]3C(=O)N(C)CC(=O)N(C)[C@@H](C(C)C)C(=O)O[C@@H]2C)c(N)c1=O [Actinomycin D] (I: T[dV]P[Sar][NMeV] / II: T[dV]P[Sar][NMeV]; ester I:1-I:C, II:1-II:C; linker I:N-II:N via Actinocin(9to1)) | – | 352 | No | –
C/C=C(/C)C(=O)O[C@H]1C(C)=C2[C@H]([C@@H]1OC(=O)CCCCCCC)[C@@](C)(OC(C)=O)C[C@H](OC(=O)CCC)[C@@]1(O)[C@H]2OC(=O)[C@@]1(C)O [Thapsigargin] | 171 | – | – | IC50 (HEK293 cells; [3]): 40000 nM
CC[C@@]1(O)C(=O)OCc2c1cc1n(c2=O)Cc2cc3c(CN(C)C)c(O)ccc3nc2-1 [Topotecan hydrochloride] | 51.4 | – | No | –
COc1cccc2c1C(=O)c1c(O)c3c(c(O)c1C2=O)C[C@@](O)(C(C)=O)C[C@@H]3O[C@H]1C[C@H](N)[C@H](O)[C@H](C)O1 [Daunorubicin] | 536 | – | No | –
O=c1[nH]c2ccc(Cl)cc2c(N[C@@H]2CN3CCC2CC3)c1-c1nc2ccccc2[nH]1 [CHIR-124] | – | 405 | – | IC50 (HEK293 cells; [1]): 3250 nM
COc1c(C)c2c(c(O)c1C/C=C(\C)CCC(=O)O)C(=O)OC2 [Mycophenolic acid] | 539 | – | No | –
